Laboratory results taken from paper PMC10065799, “High-throughput profiling of sequence recognition by tyrosine kinases and SH2 domains using bacterial peptide display” (eLife, 2023).

Biological target: T1, c-Abl kinase domain (Mus musculus, UniProt P00520)
T1 sequence (P00520 242-493 limits assumed): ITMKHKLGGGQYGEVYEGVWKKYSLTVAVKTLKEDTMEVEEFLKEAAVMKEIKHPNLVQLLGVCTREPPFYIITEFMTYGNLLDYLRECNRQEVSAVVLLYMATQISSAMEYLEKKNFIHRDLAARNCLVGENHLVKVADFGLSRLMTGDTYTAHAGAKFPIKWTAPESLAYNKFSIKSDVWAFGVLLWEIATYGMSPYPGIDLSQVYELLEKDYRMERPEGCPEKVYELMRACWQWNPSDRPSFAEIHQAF
Assay: pTyr-Var library bacterial peptide display kinase screen (enrichment scores)
Assay type: biochemical
Details: variant versus reference peptide

ATGLIYIGSHD [AASDH_Y870_T865A]
c-Abl difference (mean log2 variant - mean log2 reference): 0.7644
